# In PubChem BioAssay AID743450 (Broad Institute, 2014):
# Where “and” joins values, the source holds several entries; their conditions need not be identical. Identical values can stand only once. Results filed as inconclusive are left out. Calls of active or inactive are those of the source. How the calls were made is not given here.
# Assay: Starved TB CFU, imaging assay, inhibitor dose response, confirmatory stage (AID 743450)
# Settings: for activity change, negative = inhibition: at 26 µM (top of the series)
SMILES,AC90,"activity change, negative = inhibition"
Cn1c(NC(=O)c2ccccc2)nc2cc(Cl)ccc21,6.02 µM,–
Cn1c(NC(=O)c2ccccc2C(F)(F)F)nc2ccccc21,7.01 µM,–
Cn1c(NC(=O)c2ccc(-c3ccccc3)cc2)nc2ccccc21,6.25 µM,–
Cn1c(NC(=O)c2ccccc2)nc2ccc3ncccc3c21,6.35 µM,–
Cn1c(NC(=O)c2ccccc2)nc2ccccc21,4.27 µM and 4.2 µM,–
Cn1c(NC(=O)c2ccccc2)nc2c(C#N)cccc21,5.26 µM,–
O=C(Nc1nc2ccccc2n1-c1ccccc1)c1ccccc1,> 26 µM (inactive),–
CC(C)n1c(NC(=O)c2ccccc2)nc2ccccc21,6.68 µM,–
Cn1c(NC(=O)c2ccc(C(C)(C)C)cc2)nc2ccccc21,6.68 µM,–
Cn1c(NC(=O)c2cccc(OC(F)F)c2)nc2ccccc21,22.3 µM,–
Cn1c(NC(=O)c2cccs2)nc2ccccc21,4.16 µM and 1.65 µM,–
Cc1ccc2c(c1)nc(NC(=O)c1ccccc1)n2C,13.6 µM,–
Cn1c(NC(=O)c2ccccc2)nc2cc(C(F)(F)F)ccc21,6.01 µM,–
O=C(Nc1nc2ccccc2n1C1CC1)c1ccccc1,4.84 µM,–
Cn1c(NC(=O)c2ccccc2)nc2c3ncccc3ccc21,1.18 µM,–
COc1ccccc1C(=O)Nc1nc2ccccc2n1C,5.86 µM,–
Cn1c(NC(=O)c2ccccc2)nc2c3nccnc3ccc21,1.37 µM,–
Cn1c(NC(=O)c2ccccc2)nc2c3cccnc3ccc21,12 µM,–
Cn1c(NC(=O)c2ccccc2)nc2cc(C#N)ccc21,7.91 µM,–
Cn1c(NC(=O)c2ccccc2)nc2c(F)cccc21,10.1 µM,–
Cn1c(NC(=O)c2ccccc2)nc2cc(F)ccc21,4.55 µM,–
CCCn1c(NC(=O)c2ccccc2)nc2ccccc21,6.02 µM,–

SMILES,AC90,"activity change, negative = inhibition"
Cc1cccc(C(=O)Nc2nc3ccccc3n2C)c1,8.9 µM,–
COc1cccc2c1nc(NC(=O)c1ccccc1)n2C,3.66 µM,–
CN(C)c1cccc(C(=O)Nc2nc3ccccc3n2C)c1,5.34 µM,–
O=C(Nc1nc2ccccc2n1C1CCCCC1)c1ccccc1,8.07 µM,–
Cn1c(N)nc2ccccc21,–,3% (inactive)
Cn1c(NC(=O)c2ccc(F)cc2)nc2ccccc21,5.03 µM,–
CC(C)Oc1ccc(C(=O)Nc2nc3ccccc3n2C)cc1,6.98 µM,–
Cn1c(NC(=O)c2ccccc2)nc2c3ccncc3ccc21,6.92 µM,–
Cn1c(NC(=O)c2ccccc2)nc2cccc(Cl)c21,10.2 µM,–
Cn1c(NC(=O)c2ccccc2)nc2ccc(F)cc21,4.72 µM,–
CN(C(=O)c1ccccc1)c1nc2ccccc2n1C,> 26 µM (inactive),–
Cn1c(NC(=O)c2ccccn2)nc2ccccc21,5.17 µM,–
Cn1c(NC(=O)c2ccc(F)c(F)c2)nc2ccccc21,19.9 µM,–
Cn1c(NC(=O)c2cccc3ccccc23)nc2ccccc21,2.81 µM,–
Cn1c(NC(=O)c2ccccc2)nc2ccc(C#N)cc21,–,-66% (inactive)
Cn1c(NC(=O)c2cccc(F)c2)nc2ccccc21,7.51 µM,–
COCCn1c(NC(=O)c2ccccc2)nc2ccccc21,2.23 µM,–
O=C(Nc1nc2ccccc2n1Cc1ccccc1)c1ccccc1,6.74 µM,–
Cn1c(NC(=O)c2cccc(Cl)c2)nc2ccccc21,5.55 µM,–
Cn1c(NC(=O)c2ccccc2F)nc2ccccc21,4.84 µM,–
Cn1c(NC(=O)c2ccccc2Cl)nc2ccccc21,4.64 µM,–
Cc1cc(C(=O)Nc2nc3ccccc3n2C)c(C)o1,9.93 µM,–

SMILES,AC90,"activity change, negative = inhibition"
Cn1c(NC(=O)c2cccnc2)nc2ccccc21,5.75 µM,–
Cn1c(NC(=O)c2ccc3ccccc3c2)nc2ccccc21,6.5 µM,–
Cn1c(NC(=O)c2cccc(C(F)(F)F)c2)nc2ccccc21,–,-84% (inactive)
COc1ccc(C(=O)Nc2nc3ccccc3n2C)cc1OC,11.3 µM,–
Cn1c(NC(=O)Cc2ccccc2)nc2ccccc21,3.85 µM,–
O=C(Nc1nc2ccccc2[nH]1)c1ccccc1,12.3 µM,–
Cn1c(NC(=O)c2ccc(OC(F)(F)F)cc2)nc2ccccc21,6.61 µM,–
CCn1c(NC(=O)c2ccccc2)nc2ccccc21,5.52 µM,–
Cn1c(NC(=O)c2ccccc2NC(=O)c2ccccc2)nc2ccccc21,5.02 µM,–
CCN(CC)CCn1c(NC(=O)c2ccccc2)nc2ccccc21,7.31 µM,–
Cn1c(NC(=O)c2ccncc2)nc2ccccc21,15 µM,–
COc1cccc(C(=O)Nc2nc3ccccc3n2C)c1,6.18 µM,–
CCCCn1c(NC(=O)c2ccccc2)nc2ccccc21,7.88 µM,–
COc1ccc2c(c1)nc(NC(=O)c1ccccc1)n2C,4.26 µM,–
Cc1ccc(C(=O)Nc2nc3ccccc3n2C)cc1,4.71 µM,–
O=C(Nc1nc2ccccc2n1CCN1CCCCC1)c1ccccc1,12.3 µM,–
COc1ccc(C(=O)Nc2nc3ccccc3n2C)cc1,3.71 µM,–
Cn1c(NC(=O)c2ccccc2)nc2ncccc21,2.23 µM,–
O=C(Nc1nc2ccccc2n1CCN1CCOCC1)c1ccccc1,–,-51% (inactive)
Cn1c(NC(=O)c2ccccc2)nc2cccnc21,–,-100% (inactive)
CCn1c(NC(=O)c2cnn(Cc3ccccc3)c2)nc2ccccc21,–,-74% (inactive)
Cn1c(NC(=O)c2ccc(Cl)cc2)nc2ccccc21,12.3 µM,–
